Experimental data reported in paper PMC11591356, “Immunomodulatory Effects of the Tobacco Defensin NaD1” (Antibiotics, 2024).
pIC50: −log10 of the molar value. Ends that are not written are not given here.

How the values were obtained:
[1] = test system: THP-1-derived macrophages; experiment: ELISA assay of cytokine production by THP-1-derived macrophages; format: cell-based, human
Method: THP-1 (ATCC TIB-202) cells were thawed and cultured in complete RPMI-1640, containing 10% FBS (Capricorn Scientific) and 1×AA solution in CO2-intubator. Monocytic THP-1 cells were differentiated into resting M0 macrophages by stimulation for 24 h with 100 ng/mL phorbol 12-myristate 13-acetate (PMA) in complete RPMI-1640. Then, the attached macrophage-like cells were washed out with culture medium without serum and incubated for another 48 h in PMA-free complete culture medium with 10% HS and 1×AA solution.
THP-1-derived macrophages were seeded into the wells of a 24-well plate at a density of 2.7 × 10^5 cells/well in complete RPMI-1640 with 10% HS and 1×AA solution. Then, 24 h later, the culture medium was replaced by the fresh complete RPMI-1640 containing lipopolysaccharide from Escherichia coli 0111:B4 (LPS, Sigma, St. Louis, MO, USA) or zymosan from the cell wall of Saccharomyces cerevisiae (Serva, Heidelberg, Germany) at concentrations of 1 or 10 μg/mL, respectively; antimicrobial peptides NaD1, Psd1, LL-37 or HBD2 at concentrations of 2 or 0.2 µM; and combinations of antimicrobial peptides with LPS or zymosan at the same concentrations. Insoluble zymosan was resuspended in sterile water and sonicated twice for 30 s; after that, the stock solution was heated to 80 °C for 20 min. Peptides were added 2 h before stimulation with LPS and zymosan. After that, PAMPs solutions were added and the cells were cultured for 24 h. Complete RPMI-1640 only was used in the control wells. Culture supernatants were collected and stored at −70 °C prior to the cytokines’ assessment.
The production of pro- and anti-inflammatory cytokines IL-1β, IL-6, TNF-α and IL-10 by stimulated and non-stimulated THP-1-derived macrophages were estimated by using ELISA kits (Vector-Best, Koltsovo, Russia). Briefly, 96-well plates with adsorbed monoclonal antibodies to the corresponding cytokine were used. Undiluted or diluted 5, 20 or 80 times in the case of IL-10, TNF-α and IL-1β or IL-6, respectively, culture supernatants from the wells of 24-well plates were taken for analysis. Biotinylated polyclonal antibodies to cytokines, streptavidin conjugated to HRP and TMB substrate were further used for the detection of immune complexes. A panel of calibration solutions containing different concentrations of cytokines was used in each experiment. Experiments were performed using two biological and two technical repeats. The release of the cytokines in the control and experimental samples was compared with an unpaired two-sample t-test using GraphPad Prism v.8.0.1 (GraphPad Software, Inc., San Diego, CA, USA). The p values ≤ 0.05 were considered significant.

[2] = test system: Candida albicans ATCC 18804; experiment: Antifungal microdilution assay with or without LPS or zymosan; format: cell-based
Method: The antifungal assay was performed by the microdilution method using 96-well microplates as described. Briefly, C. albicans ATTC 18804 cells in stock were inoculated onto Sabouraud agar plates with 2% glucose and incubated for 24 h at 37 °C. After replating, cells were inoculated in Sabouraud broth and cultured at 37 °C for 2 h. The cell concentration was determined using a LUNA-II cell counter (Logos Biosystems, Anyang-si, Republic of Korea). Yeast cells in Sabouraud broth diluted to concentration of 4 × 10^4 cells/mL were mixed with equal volumes of serial two-fold dilutions of the peptides in water and the plates were incubated at 30 °C for 24 h. The final peptide concentrations in the wells were 25, 12.5, 6.25, 3.13, 1.56, 0.78 and 0.39 μM. Controls without peptides were also tested. […] Yeast growth was assessed using an inverted light microscope and also by measuring absorbance at 630 nm. The minimum inhibitory concentrations IC50 and MIC were defined as the lowest peptide concentrations inhibiting fungal growth by at least 50 and 100%, respectively. […] The MFCs corresponded to the minimal peptide concentration, in which no colony growth was observed.
To estimate the effects of LPS and zymosan on the antifungal activity of NaD1 and LL-37, these PAMPs were added in culture media at concentrations of 10, 40 and 100 μg/mL [39, 40]. All of the experiments were performed twice in triplicate.

[3] = peptide 2 µM 2 h before LPS 1 μg/mL, 24 h, vs LPS alone
[4] = peptide 2 µM 2 h before zymosan 10 μg/mL, 24 h, vs zymosan alone

“NaD1: Recombinant tobacco floral defensin NaD1 (UNIPROT Q8GTM0), obtained by heterologous expression in E. coli; FITC-labeled in the permeability assay (RECKTESNTFPGICITKPPCRKACISEKFTDGHCSKILRRCLCTKPC; cysteine pairing not given here; also: FITC label; UniProt Q8GTM0 26-72, looked up)” was tested, and the “IL-10 production by M0 and M1 macrophages” value ([1]; elevation from 150 (without NaD1)) was 180 pg/mL, the “IL-1β production by M0 and M1 macrophages” value ([1]; increase from 4500 (without NaD1)) was 6500 pg/mL and the “LPS-induced IL-1β production” value [1, 3] was “increased the LPS-induced production of IL-1β”. For the same substance, the “LPS-induced IL-10 production” value [1, 3] was “increased the LPS-induced production of IL-10”, the “LPS-induced TNF-α secretion” value [1, 3] was “reduced the LPS-induced secretion of TNF-α” and the “IL-1β production in the presence of zymosan” value [1, 4] was “induced the production of IL-1β (p <0.0001) more strongly than without this PAMP”. The “IL-10 production in the presence of zymosan” value [1, 4] was “increased the production of IL-10 in the presence of zymosan”, the “IL-10 production, unstimulated macrophages” value ([1]; peptide 2 µM alone, vs unstimulated control) was “induced the production of IL-10” and the “IL-1β production, unstimulated macrophages” value ([1]; peptide 2 µM alone, vs unstimulated control, two biological and two technical repeats) was “significantly increased IL-1β level”. The pIC50 ([2]; 10 μg/mL LPS) was 5.20 to 5.51, the MFC ([2]; 10 μg/mL LPS) was 12.5 µM and the MIC ([2]; 10 μg/mL LPS) was 6.25 µM. The pIC50 ([2]; 10 μg/mL Zymosan) was 5.20 to 5.51, the MFC ([2]; 10 μg/mL Zymosan) was 12.5 µM and the MIC ([2]; 10 μg/mL Zymosan) was 6.25 µM. It also gave a pIC50 ([2]; 40 μg/mL LPS) of 5.20 to 5.51, an MFC ([2]; 40 μg/mL LPS) of 12.5 µM and an MIC ([2]; 40 μg/mL LPS) of 6.25 µM. For the same substance, the pIC50 ([2]; 40 μg/mL Zymosan) was 5.20 to 5.51, the MFC ([2]; 40 μg/mL Zymosan) was 25 µM and the MIC ([2]; 40 μg/mL Zymosan) was 6.25 µM. The pIC50 ([2]; 100 μg/mL LPS) was 5.20 to 5.51, the MFC ([2]; 100 μg/mL LPS) was 12.5 µM and the MIC ([2]; 100 μg/mL LPS) was 12.5 µM. For the same substance, the pIC50 ([2]; 100 μg/mL Zymosan) was 5.20 to 5.51, the MFC ([2]; 100 μg/mL Zymosan) was 25 µM and the MIC ([2]; 100 μg/mL Zymosan) was 6.25 µM. For the same substance, the MIC ([2]; without PAMP, Sabouraud broth, 30 °C, 24 h, 100% growth inhibition) was 6.25 µM, the pIC50 ([2]; without PAMP, Sabouraud broth, 30 °C, 24 h, lowest concentration inhibiting growth by at least 50%, twice in triplicate) was 5.20 to 5.51 and the MFC ([2]; without PAMP, plating on Sabouraud agar, 37 °C, 24 h, no colony growth) was 12.5 µM.
